Data published in patent US10221182B2, “3,3-difluoro-piperidine derivatives as NR2B NMDA receptor antagonists” (Rugen Holdings (Cayman) Limited, priority 2015, dated 2019).

How the values were obtained:
hERG channel = hERG channel (Homo sapiens (Human), UniProt Q12809)
human NR1/NR2A = human NR1/NR2A (Homo sapiens (Human), UniProt Q05586+Q12879); assay: NR2A antagonist activity, Fluo-4 calcium influx assay in HEK293 cells; type: cell-based
Protocol: (§1) Activation of the NR2A or NR2B subtype of NMDA receptor with glutamate as an agonist and glycine co-agonist on these cells results in calcium influx, which can be monitored with fluorescent indicator Fluo-4.
(§2) For experiments, the cells were seeded onto poly-D-lysine-coated 96-well black plates with clear bottom (Corning) at a density of ˜50,000 cells/well. After overnight culture, the growth medium was removed from the wells and the cells were incubated at 37° C. for 60 min in Hanks buffer containing 4 μM fluo-4-AM (Invitrogen) and 0.1% bovine serum albumin (BSA). After dye-loading, the cells were washed three times with Hanks buffer and incubated for 10 min at room temperature with various concentrations of test compounds prepared in Hanks buffer with 0.1% BSA. The cell plates were placed onto FDSS μCell fluorescence reader (Hamamatsu). After 20 sec reading of background fluorescence, agonist glutamate at final 100 μM and co-agonist glycine at final 50 μM were added to the cells to activate the receptor, and the resulting fluorescence changes were recorded and quantified. Based on the changes in fluorescence intensity, the pharmacological effect of test compounds were analyzed and the IC50 values derived from a non-linear least squares fitting of the concentration-dependent response to a standard logistic equation using Prism (Graphpad, Inc): Amplitude=Max Amplitude/(1+([…])^n).

human NR1/NR2B = human NR1/NR2B (Homo sapiens (Human), UniProt Q05586+Q13224); assay: NR2B antagonist activity, Fluo-4 calcium influx assay in HEK293 cells; type: cell-based; settings: hNR2B IC50, HEK293 cells expressing NR1/NR2B; glutamate 100 μM, glycine 50 μM
Protocol: as §1, §2

mice = assay: Forced swim test (FST); type: in vivo; settings: male mice, intraperitoneal; imipramine 32 mg/kg IP
Protocol: Procedure. Male mice (strain NLMN) weighing 25-35 g were used for testing. All animals were housed in a temperature (22-24° C.) and humidity (50-60%) controlled environment with free access to food and water on a 12-hour light-dark cycle. Test compounds were dissolved in 0.5% dimethylsulfoxide, 4% hydroxypropyl-β-cyclodextrin water to generate the appropriate dosing solution. Drugs were administered by intraperitoneal injection at a dose volume of 10 mL/kg. Testing was initiated 20-60 minutes after dosing. […] Mice were placed in a white plastic cylinder 20 cm high with a diameter of 21 cm containing 10 cm of water at 25±2° C. The mice were videotaped for 6 minutes, and the last 4 minutes of video were analyzed by a blinded observer off-line. The observer judged the animal to be immobile when it ceased all activity (struggling, swimming, jumping etc.) and floated passively atop the water. The amount of time each animal spent in the immobile state was recorded and used for statistical analysis of compound effect. Group differences were evaluated by student's t-test or one-way ANOVA followed by post-hoc Dunnett's test.

human NR1/NR2B, sequence (Q13224 27-1484, other chains not shown): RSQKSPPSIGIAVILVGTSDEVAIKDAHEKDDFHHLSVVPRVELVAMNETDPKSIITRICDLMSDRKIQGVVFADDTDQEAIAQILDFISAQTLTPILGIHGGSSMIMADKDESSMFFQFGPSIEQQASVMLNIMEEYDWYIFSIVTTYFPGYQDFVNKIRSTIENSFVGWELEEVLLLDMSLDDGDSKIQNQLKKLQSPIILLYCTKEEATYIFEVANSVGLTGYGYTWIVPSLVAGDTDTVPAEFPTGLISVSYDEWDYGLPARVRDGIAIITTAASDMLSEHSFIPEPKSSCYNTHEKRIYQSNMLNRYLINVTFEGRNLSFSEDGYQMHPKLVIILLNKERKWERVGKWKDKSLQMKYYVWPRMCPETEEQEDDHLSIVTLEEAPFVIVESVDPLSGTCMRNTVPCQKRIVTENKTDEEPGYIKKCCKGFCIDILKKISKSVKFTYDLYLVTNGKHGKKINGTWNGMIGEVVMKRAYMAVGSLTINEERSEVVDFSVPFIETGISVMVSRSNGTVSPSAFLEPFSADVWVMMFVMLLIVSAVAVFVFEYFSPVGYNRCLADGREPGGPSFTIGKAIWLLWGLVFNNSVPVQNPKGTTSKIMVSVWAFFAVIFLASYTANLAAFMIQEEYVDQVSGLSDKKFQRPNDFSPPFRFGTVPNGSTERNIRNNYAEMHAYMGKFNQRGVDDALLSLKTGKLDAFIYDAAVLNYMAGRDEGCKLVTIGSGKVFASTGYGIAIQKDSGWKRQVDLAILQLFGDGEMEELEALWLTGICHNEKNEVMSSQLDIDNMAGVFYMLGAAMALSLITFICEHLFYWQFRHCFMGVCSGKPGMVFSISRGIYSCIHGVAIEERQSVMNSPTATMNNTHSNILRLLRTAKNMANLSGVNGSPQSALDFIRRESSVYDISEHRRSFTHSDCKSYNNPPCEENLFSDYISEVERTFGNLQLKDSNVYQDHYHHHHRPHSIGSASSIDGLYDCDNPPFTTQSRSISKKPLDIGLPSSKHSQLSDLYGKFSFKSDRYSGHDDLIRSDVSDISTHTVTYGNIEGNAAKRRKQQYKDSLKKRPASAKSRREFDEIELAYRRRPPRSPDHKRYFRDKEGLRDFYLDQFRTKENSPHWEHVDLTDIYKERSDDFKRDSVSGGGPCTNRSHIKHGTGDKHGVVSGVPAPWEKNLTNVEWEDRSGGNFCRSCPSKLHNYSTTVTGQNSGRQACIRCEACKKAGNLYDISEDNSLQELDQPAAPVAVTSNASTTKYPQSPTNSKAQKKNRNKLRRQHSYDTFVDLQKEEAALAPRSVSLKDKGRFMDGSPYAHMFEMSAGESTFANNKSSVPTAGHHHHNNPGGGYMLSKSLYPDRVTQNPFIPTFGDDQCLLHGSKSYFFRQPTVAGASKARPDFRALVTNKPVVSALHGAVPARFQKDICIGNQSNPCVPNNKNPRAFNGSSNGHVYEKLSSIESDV
hERG channel, sequence (Q12809 whole entry): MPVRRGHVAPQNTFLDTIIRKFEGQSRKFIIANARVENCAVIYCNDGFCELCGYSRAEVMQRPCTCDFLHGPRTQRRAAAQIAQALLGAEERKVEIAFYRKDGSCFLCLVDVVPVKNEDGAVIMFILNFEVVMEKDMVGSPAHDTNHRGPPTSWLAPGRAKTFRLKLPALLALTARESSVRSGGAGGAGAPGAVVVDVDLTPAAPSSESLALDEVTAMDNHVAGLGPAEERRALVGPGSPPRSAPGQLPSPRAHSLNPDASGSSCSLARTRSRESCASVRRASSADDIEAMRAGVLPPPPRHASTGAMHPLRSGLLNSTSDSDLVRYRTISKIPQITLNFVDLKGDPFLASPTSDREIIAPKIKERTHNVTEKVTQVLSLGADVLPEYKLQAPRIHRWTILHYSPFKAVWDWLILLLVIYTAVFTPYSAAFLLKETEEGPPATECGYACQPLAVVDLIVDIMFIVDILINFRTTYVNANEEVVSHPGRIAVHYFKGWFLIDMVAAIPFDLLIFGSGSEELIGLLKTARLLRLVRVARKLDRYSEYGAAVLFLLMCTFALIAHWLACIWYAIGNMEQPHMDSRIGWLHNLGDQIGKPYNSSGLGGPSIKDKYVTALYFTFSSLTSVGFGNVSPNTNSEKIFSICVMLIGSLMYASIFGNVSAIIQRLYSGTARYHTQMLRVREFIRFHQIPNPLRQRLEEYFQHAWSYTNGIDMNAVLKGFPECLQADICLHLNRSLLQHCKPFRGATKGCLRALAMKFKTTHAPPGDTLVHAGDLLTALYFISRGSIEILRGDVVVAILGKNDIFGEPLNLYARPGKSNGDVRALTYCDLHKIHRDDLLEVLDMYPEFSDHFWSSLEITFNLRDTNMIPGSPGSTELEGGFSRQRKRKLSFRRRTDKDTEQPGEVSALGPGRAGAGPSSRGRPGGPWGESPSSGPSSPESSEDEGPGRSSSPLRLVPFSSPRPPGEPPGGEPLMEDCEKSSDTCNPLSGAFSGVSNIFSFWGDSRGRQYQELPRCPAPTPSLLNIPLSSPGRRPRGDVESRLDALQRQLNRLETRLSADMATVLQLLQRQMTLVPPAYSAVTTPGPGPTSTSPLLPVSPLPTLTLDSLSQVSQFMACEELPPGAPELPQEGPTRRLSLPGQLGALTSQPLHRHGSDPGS
human NR1/NR2A, sequence (Q12879 23-1464, other chains not shown): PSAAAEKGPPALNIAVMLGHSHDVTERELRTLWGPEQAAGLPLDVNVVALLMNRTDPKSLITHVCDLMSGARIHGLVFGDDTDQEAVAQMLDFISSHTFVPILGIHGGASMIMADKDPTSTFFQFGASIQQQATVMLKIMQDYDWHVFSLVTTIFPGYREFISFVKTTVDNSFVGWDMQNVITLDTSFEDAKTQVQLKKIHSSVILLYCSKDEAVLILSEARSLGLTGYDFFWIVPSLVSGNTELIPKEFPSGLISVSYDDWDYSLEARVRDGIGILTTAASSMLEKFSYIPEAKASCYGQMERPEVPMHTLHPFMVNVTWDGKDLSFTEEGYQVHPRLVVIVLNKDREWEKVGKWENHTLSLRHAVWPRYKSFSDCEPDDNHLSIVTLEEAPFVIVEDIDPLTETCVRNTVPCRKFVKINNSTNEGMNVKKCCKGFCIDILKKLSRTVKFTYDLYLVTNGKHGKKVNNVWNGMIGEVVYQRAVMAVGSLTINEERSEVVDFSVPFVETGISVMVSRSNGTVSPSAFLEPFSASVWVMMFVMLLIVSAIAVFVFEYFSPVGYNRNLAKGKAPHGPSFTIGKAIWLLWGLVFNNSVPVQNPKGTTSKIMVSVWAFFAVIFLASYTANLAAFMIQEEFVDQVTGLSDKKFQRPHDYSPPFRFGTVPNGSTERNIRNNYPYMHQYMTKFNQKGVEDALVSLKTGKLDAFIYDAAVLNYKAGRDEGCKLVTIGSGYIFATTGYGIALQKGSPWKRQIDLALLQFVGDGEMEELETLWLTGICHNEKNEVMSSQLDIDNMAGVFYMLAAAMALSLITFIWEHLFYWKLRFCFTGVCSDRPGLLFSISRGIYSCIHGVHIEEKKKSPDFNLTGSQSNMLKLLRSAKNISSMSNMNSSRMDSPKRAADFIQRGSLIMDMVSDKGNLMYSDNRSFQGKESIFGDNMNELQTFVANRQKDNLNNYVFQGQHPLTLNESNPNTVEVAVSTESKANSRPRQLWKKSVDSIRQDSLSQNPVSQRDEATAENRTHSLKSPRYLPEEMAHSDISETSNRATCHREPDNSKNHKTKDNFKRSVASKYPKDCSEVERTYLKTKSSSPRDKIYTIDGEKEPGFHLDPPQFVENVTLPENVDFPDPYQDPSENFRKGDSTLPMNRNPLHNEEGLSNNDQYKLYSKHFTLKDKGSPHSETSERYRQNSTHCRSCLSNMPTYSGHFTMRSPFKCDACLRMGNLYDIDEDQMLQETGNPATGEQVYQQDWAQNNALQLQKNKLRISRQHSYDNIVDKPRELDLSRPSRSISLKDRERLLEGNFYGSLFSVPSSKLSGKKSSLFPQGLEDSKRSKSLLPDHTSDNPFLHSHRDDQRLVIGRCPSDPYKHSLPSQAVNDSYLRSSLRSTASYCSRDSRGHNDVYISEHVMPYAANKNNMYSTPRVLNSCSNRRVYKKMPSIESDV

For `CN(c1ncnc2[nH]ncc12)C1CCN(CCc2ccc(C(F)(F)F)cc2)CC1(F)F` (racemic) [C-1.33], the “hERG @ 10 μM” value (hERG channel) was 59%, the IC50 (human NR1/NR2A) was greater than 10000 nM and the IC50 (human NR1/NR2B) was 103 nM.
`CN(C)CCCN1c2ccccc2CCc2ccccc21` [imipramine] was tested, and the “antidepressant activity (immobility time)” value (mice) was “showed the expected antidepressant activity”.
